Measurements published in ChEMBL document CHEMBL1201862, “PubChem BioAssay data set” (2004).
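Where inhibition never reached the appropriate level, the endpoint shown equals the highest concentration tested. Otherwise, values were interpolated linearly from a five-concentration, 48-hour dose response in 96-well plates. The concentration for 50% growth inhibition is given as GI50.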 Calls of active or inactive are those of the source. Rule as the data show it: active = GI50 up to about 1.1 µM and inactive = higher.

How the values were obtained:
Assay in all cases: inhibition of tumour cell growth, NCI panel, 48 h
[1] = tested on: COLO 205
[2] = tested on: HCT-15
[3] = tested on: TK-10
[4] = tested on: SW-620
[5] = tested on: OVCAR-5
[6] = tested on: EKVX
[7] = tested on: UACC-62
[8] = tested on: OVCAR-8
[9] = tested on: IGROV-1
[10] = tested on: OVCAR-3
[11] = tested on: KM12
[12] = tested on: M14
[13] = tested on: U-251
[14] = tested on: LOX IMVI
[15] = tested on: A549
[16] = tested on: Malme-3M
[17] = tested on: NCI-H23
[18] = tested on: SNB-19
[19] = tested on: SK-OV-3
[20] = tested on: CCRF-CEM

| Compound | GI50 [1] | GI50 [2] [µM] | GI50 [3] | GI50 [4] | GI50 [5] | GI50 [6] | GI50 [7] | GI50 [8] | GI50 [9] | GI50 [10] | GI50 [11] | GI50 [12] | GI50 [13] | GI50 [14] | GI50 [15] | GI50 [16] | GI50 [17] | GI50 [18] | GI50 [19] | GI50 [20] |
| --- | --- | --- | --- | --- | --- | --- | --- | --- | --- | --- | --- | --- | --- | --- | --- | --- | --- | --- | --- | --- |
| CCOC(=O)C1S/C(=N\c2ccc(Cl)cc2Cl)N=C1C (configuration not stated) | > 100 µM (inactive) | > 100 | > 100 µM (inactive) | > 100 µM (inactive) | > 100 µM (inactive) | > 100 µM (inactive) | 46.9 µM (inactive) | 74.6 µM (inactive) | > 100 µM (inactive) | 96.6 µM (inactive) | > 100 µM (inactive) | 81.8 µM (inactive) | 58.1 µM (inactive) | 74.5 µM (inactive) | 76.4 µM (inactive) | 76.7 µM (inactive) | 39.4 µM (inactive) | 47.5 µM (inactive) | – | – |
| CCOC(=O)c1sc2nc(SC)nc3c2c1NC(=O)CN3c1cccc(F)c1 | 17.5 µM (inactive) | – | 28.4 µM (inactive) | 0.834 µM (active) | 45 µM (inactive) | 46 µM (inactive) | 30.5 µM (inactive) | 15.5 µM (inactive) | 61.8 µM (inactive) | 19.7 µM (inactive) | 80.5 µM (inactive) | 20.5 µM (inactive) | 14.4 µM (inactive) | 17.8 µM (inactive) | 14 µM (inactive) | 30.3 µM (inactive) | 27 µM (inactive) | 20.3 µM (inactive) | 20 µM (inactive) | – |
| N#CC1C(=O)C(=O)N(c2ccccc2)C1=O (configuration not stated) | > 100 µM (inactive) | > 100 | > 100 µM (inactive) | > 100 µM (inactive) | > 100 µM (inactive) | > 100 µM (inactive) | > 100 µM (inactive) | > 100 µM (inactive) | > 100 µM (inactive) | > 100 µM (inactive) | > 100 µM (inactive) | > 100 µM (inactive) | > 100 µM (inactive) | > 100 µM (inactive) | – | > 100 µM (inactive) | > 100 µM (inactive) | > 100 µM (inactive) | > 100 µM (inactive) | – |
| O=C(C1C(c2ccccc2)N1C(c1ccccc1)c1ccccc1)C1C(c2ccccc2)N1C(c1ccccc1)c1ccccc1 (configuration not stated) | > 10 µM (inactive) | > 10 | 24.8 µM (inactive) | 5.14 µM (inactive) | 32.1 µM (inactive) | 48.2 µM (inactive) | – | 29.6 µM (inactive) | > 10 µM (inactive) | – | 26.9 µM (inactive) | 37.2 µM (inactive) | 25.1 µM (inactive) | – | 39 µM (inactive) | – | – | 97.5 µM (inactive) | > 100 µM (inactive) | 3.61 µM (inactive) |
| C/C=C(\C)C(=O)OC1C2C(C)=CC(=O)C(O)C2(C)C2C3(O)OCC24C1OC(=O)C(OC(C)=O)C4C(C)C3O (configuration not stated) | 0.0719 µM (active) | 0.0741 | – | 0.0594 µM (active) | 0.111 µM (active) | 0.046 µM (active) | 0.0375 µM (active) | 0.0396 µM (active) | 0.0375 µM (active) | 0.0375 µM (active) | 0.0375 µM (active) | – | 0.0375 µM (active) | 0.0375 µM (active) | 0.0873 µM (active) | – | 0.043 µM (active) | – | 0.144 µM (active) | 0.0375 µM (active) |
| CCOC(=O)CSC(=O)NCCCl | > 100 µM (inactive) | > 100 | > 100 µM (inactive) | > 100 µM (inactive) | > 100 µM (inactive) | > 100 µM (inactive) | > 100 µM (inactive) | > 100 µM (inactive) | > 100 µM (inactive) | > 100 µM (inactive) | > 100 µM (inactive) | > 100 µM (inactive) | > 100 µM (inactive) | – | > 100 µM (inactive) | > 100 µM (inactive) | > 100 µM (inactive) | > 100 µM (inactive) | > 100 µM (inactive) | – |
| C=C[C@@](C)(/C=C/c1ccc(O)cc1)CCC=C(C)C [BAKUCHIOL] | 17.7 µM (inactive) | 16.8 | 17.1 µM (inactive) | 17 µM (inactive) | 19.2 µM (inactive) | – | – | 16.9 µM (inactive) | 15.8 µM (inactive) | 18.3 µM (inactive) | – | 19.1 µM (inactive) | 16.9 µM (inactive) | 18.2 µM (inactive) | 17.8 µM (inactive) | – | 16.7 µM (inactive) | 19.1 µM (inactive) | 16.3 µM (inactive) | 14.8 µM (inactive) |
| C[C@]12CC[C@H](O)CC1=CC[C@@H]1[C@@H]2CC[C@]2(C)C(=O)CC[C@@H]12 [PRASTERONE] | > 100 µM (inactive) | > 100 | > 100 µM (inactive) | > 100 µM (inactive) | > 100 µM (inactive) | 75.2 µM (inactive) | > 100 µM (inactive) | > 100 µM (inactive) | – | > 100 µM (inactive) | > 100 µM (inactive) | > 100 µM (inactive) | > 100 µM (inactive) | > 100 µM (inactive) | > 100 µM (inactive) | > 100 µM (inactive) | > 100 µM (inactive) | > 100 µM (inactive) | > 100 µM (inactive) | – |
